Where two headings read alike, the source gives them in different places.
Columns and labels:
[1] = liquid diet, glucose (47% of caloric content) substituted; cited from earlier work
[2] = system: primary hippocampal cultures; experiment: Hippocampal microisland cultures with or without amyloid β1-42; type: cell-based, Wistar embryos; conditions: for neuronal cell number per microisland (mean): increase from a mean of 30
Method: The serum free medium used from 0 to day 4 contained Neurobasal medium with B27 supplement diluted 50 fold (Life Technology, Gaithersburg, Md.) to which was added: 0.5 mM L-glutamine, 25 μM Na L-glutamate, 100 U/ml penicillin and 100 μg/ml streptomycin. After day 4, DMEM/F12 medium containing 5 μM insulin, 30 nM 1-thyroxine, […] progesterone, 30 nM Na selenite 100 U/ml penicillin and 100 μg/ml streptomycin were used.
The primary hippocampal cultures were removed from Wistar embryos on day 18 and dispersed by gentle agitation in a pipette. The suspension was centrifuged at 1,500×g for 10 min and the supernatant discarded. The pellet was resuspended in new media to a final cell count of […]. Ten μl of this suspension was pipetted into the center of poly D-lysine coated culture wells and the plates incubated at 38° C. for 4 hrs and then 400 μl of fresh Neurobasal media was added. After 2 days of incubation, half of the media was exchanged for fresh media and the incubation continued for 2 more days. After day 4, the medium was changed with DMEM/F12 medium containing 5 μM insulin, 30 nM 1-thyroxine, 20 nM progesterone, 30 nM Na selenite 100 U/ml penicillin and 100 μg/ml streptomycin. […] These media were exchanged 2 days later (day 8) and the cells were fixed on day 10 and stained with anti MAP2 (Boehringer Manheim, Indianapolis Ind.) to visualize neurons and vimentin and GFAP (Boehringer) to visualize glial cells.

[3] = design: species or system rats; conditions: rat, in vivo, 30 min
Method: Control rats (n=2) were killed at 60 and 180 minutes after ingestion of yoghurt while triolide fed rats were killed at 80, 140, 150 and 155 minutes. Blood samples were taken for assay of (R)-3-hydroxybutyrate. Brains were funnel frozen and later extracted in perchloric acid and extracts neutralised and assayed. Blood levels of (R)-3-hydroxybutyrate were measured using a […] assay of Anal. Biochem (1983) 131, p478-482. 1.0 ml of a solution made up from 2-amino-2-methyl-1-propanol (100 mM pH 9.9, 0.094 g/10 ml), NAD^+ (30 mM, 0.199 g/10 ml) and EDTA (4 mM, 0.015 g/10 ml) was added to each of a number of cuvettes and 4 μl sample or (R)-3-hydroxybutyrate control.
The ability of orally administered (R)-3-hydroxybutyrate and the linear oligomers of Comparative examples 1 and 2 to raise blood ketone body levels was investigated as follows. Rats were fasted overnight and then gavaged with 100 μl/100 g bodyweight of 4M (R)-3-hydroxybutyrate brought to pH 7.4 using methyl glucamine. Plasma levels of (R)-3-hydroxybutyrate were measured at 0.62 mM after 30 minutes as compared to 3 mM when 9M (R)-3-hydroxybutyrate is used.
This procedure was repeated with 2M solutions of the mixtures (R)-3-hydroxybutyrate oligomers and their acetoacetyl esters described in Comparative Examples 1 and 2.

[4] = unesterified state, room temperature; cited from earlier work
[5] = human, cited from earlier work
[6] = Rats fed triolide in 'Hob-Nob' biscuit, ill effects; type: in vivo; conditions: two rats fed approximately 1.5 g triolide each in 'Hob-Nob' biscuit; after two weeks
[7] = Oral administration of triolide in yoghurt to rats, plasma (R)-3-hydroxybutyrate; type: in vivo, Wistar rats; conditions: about 0.4 g triolide in yoghurt
Method: The ability of orally administered triolide to raise blood ketone levels was investigated as follows. The day before the experiment commenced, 12 Wistar rats weighing 316+10 g were placed in separate cages. They had no access to food for 15 hours prior to presentation with triolide containing compositions, but water was provided ad libitum.
On the morning of the experiment 0.64 g of triolide was mixed with 5 g Co-op brand Black Cherry yoghurt in separate feeding bowls for 9 of the rats. The remaining 3 rats were given 5 g of the yoghurt without the triolide as controls. The yoghurt containing bowls were placed in the cages and the rats timed while they ate. Two of the three control rats ate all the yoghurt and four of the […] ate approximately half the provided amount. The remaining six rats slept.
Control rats (n=2) were killed at 60 and 180 minutes after ingestion of yoghurt while triolide fed rats were killed at 80, 140, 150 and 155 minutes. Blood samples were taken for assay of (R)-3-hydroxybutyrate. Brains were funnel frozen and later extracted in perchloric acid and extracts neutralised and assayed. Blood levels of (R)-3-hydroxybutyrate were measured using a […] assay of Anal. Biochem (1983) 131, p478-482. […]

[8] = presence of (R)-3-hydroxybutyrate, whether β1-42 was present or not

CC(O)CCO (racemic) [racemic 1,3 butandiol]
blood (R)-3-hydroxybutyrate concentration [1]: 0.98 mM | blood acetoacetate concentration [1]: 0.33 mM | rise of blood ketone concentration [1]: about 10 fold

C[C@@H](O)CC(=O)O [(R)-3-hydroxybutyrate, (R)-3-hydroxybutyric acid]
neuronal cell number per microisland (mean) ([2]; 8 mM (R)-3-hydroxybutyrate added to cultures containing amyloid β1-42): 70 cells per microisland | neuronal cell number per microisland (mean) ([2]; 8 mM (R)-3-hydroxybutyrate, no amyloid β1-42): 70 cells per microisland | length of axons [2, 8]: increased | number of dendritic outgrowths [2, 8]: increased | plasma level of (R)-3-hydroxybutyrate [3]: 3000 µM | plasma level of (R)-3-hydroxybutyrate ([3]; pH 7.4): 620 µM

CC(=O)CC(=O)O [acetoacetate]
half time of spontaneous decarboxylation to acetone [4]: about 30 days

C[C@@H](O)CC(=O)[O-].[Na+] [sodium salts of (R)-3-hydroxybutyrate]
toxicity on intravenous infusion ([5]; in vivo, iv): non-toxic | decreasing leucine oxidation ([5]; intravenous infusion): ineffective | glucose free fatty acids and glycerol concentration ([5]; intravenous infusion): capable of decreasing

C[C@@H]1CC(=O)O[C@H](C)CC(=O)O[C@H](C)CC(=O)O1 [triolide, (R,R,R)-4,8,12-trimethyl-1,5,9-trioxadodeca-2,6,10-trione]
melting point: 107 to 108 °C | ill effects [6]: no ill effects | ill effects from ingestion of triolide [7]: no ill effects
